Data from US9255090B2, “Heterocyclyl derivatives and their use as prostaglandin D2 receptor modulators” (Actelion Pharmaceuticals Ltd., priority 2012, dated 2016).

Target: hCRTH2 receptor (Homo sapiens (Human), UniProt Q9Y5Y4)
Assay: hCRTH2 receptor membranes radioligand (3H-PGD2) displacement assay
Assay type: binding
Details: 3H-PGD2 radioligand displacement, HEK293-hCRTH2 membranes
How it was run: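 HEK293-hCRTH2 membranes, 20 μg/well; 3H-PGD2 added at 2.5 nM; binding buffer 50 mM Tris, 10 mM MnCl2, 1 mM EDTA, pH 7.0; 90 min RT; GF/C filtration, scintillation count. Nonspecific binding: PGD2 at […].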

hCRTH2 receptor, sequence (Q9Y5Y4 whole entry): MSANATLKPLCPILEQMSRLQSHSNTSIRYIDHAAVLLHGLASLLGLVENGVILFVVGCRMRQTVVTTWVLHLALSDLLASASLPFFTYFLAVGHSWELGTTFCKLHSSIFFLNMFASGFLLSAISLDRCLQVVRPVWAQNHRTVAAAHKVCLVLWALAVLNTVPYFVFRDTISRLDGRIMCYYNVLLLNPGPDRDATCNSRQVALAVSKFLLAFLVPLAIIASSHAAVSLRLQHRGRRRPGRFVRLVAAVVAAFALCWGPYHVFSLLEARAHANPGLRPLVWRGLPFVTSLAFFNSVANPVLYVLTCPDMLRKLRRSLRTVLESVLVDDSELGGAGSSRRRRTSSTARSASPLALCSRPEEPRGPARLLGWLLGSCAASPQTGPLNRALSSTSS

SMILES	IC50 [nM]
O=C(O)Cc1cc2c(c(-c3ccc(F)c4c3CN(C(=O)OCc3ccccc3)CC4)c1)OCO2 [Example 167, 8-(6-Carboxymethyl-benzo[1,3]dioxol-4-yl)-5-fluoro-3,4-dihydro-1H-isoquinoline-2-carboxylic acid benzyl ester]	15.4
COc1ccc(CC(=O)O)cc1-c1ccc(Cl)c2c1CN(C(=O)CCc1c(C)[nH]c3ccccc13)CC2 [Example 79, (3-{5-Chloro-2-[3-(2-methyl-1H-indol-3-yl)-propionyl]-1,2,3,4-tetrahydro-isoquinolin-8-yl}-4-methoxy-phenyl)-acetic acid]	37.8
CCOc1cc(CC(=O)O)ccc1-c1ccc(F)c2c1CN(C(=O)[C@@H]1C[C@H]1c1ccccc1)CC2 [Example 231, {3-Ethoxy-4-[5-fluoro-2-((1R,2R)-2-phenyl-cyclopropanecarbonyl)-1,2,3,4-tetrahydro-isoquinolin-8-yl]-phenyl}-acetic acid]	10.5
COc1cccc(OCC(=O)O)c1-c1ccc(F)c2c1CN(C(=O)OCc1ccccc1)CC2 [Example 417, 8-(2-Carboxymethoxy-6-methoxy-phenyl)-5-fluoro-3,4-dihydro-1H-isoquinoline-2-carboxylic acid benzyl ester]	23.5
CCC(Oc1ccc(OC)c(-c2ccc(F)c3c2CN(C(=O)OCc2ccccc2)CC3)c1)C(=O)O (racemic) [Example 415]	337
CCOc1cc(CC(=O)O)ccc1-c1ccc(F)c2c1CN(C(=O)CC1(C)CCCc3ccccc31)CC2 (racemic) [Example 326]	2
CCOc1ccc(CC(=O)O)cc1-c1ccc(F)c2c1CN(C(=O)OCC=C(C)C)CC2 [Example 375, 8-(5-Carboxymethyl-2-ethoxy-phenyl)-5-fluoro-3,4-dihydro-1H-isoquinoline-2-carboxylic acid 3-methyl-but-2-enyl ester]	8.7
CC(C)Oc1ccc(CC(=O)O)cc1-c1ccc(F)c2c1CN(C(=O)[C@@H]1C[C@H]1c1ccccc1)CC2 [Example 27, {3-[5-Fluoro-2-((1R,2R)-2-phenyl-cyclopropanecarbonyl)-1,2,3,4-tetrahydro-isoquinolin-8-yl]-4-isopropoxy-phenyl}-acetic acid]	12.9
CC(C)(C)Oc1ccc(CC(=O)O)cc1-c1ccc(F)c2c1CN(C(=O)[C@@H]1C[C@H]1c1ccccc1)CC2 [Example 428, {4-tert-Butoxy-3-[5-fluoro-2-((1R,2R)-2-phenyl-cyclopropanecarbonyl)-1,2,3,4-tetrahydro-isoquinolin-8-yl]-phenyl}-acetic acid]	3.7
O=C(O)Cc1cc(-c2ccc(F)c3c2CN(C(=O)OCc2ccccc2)CC3)ccc1Cl [Example 11, 8-(3-Carboxymethyl-4-chloro-phenyl)-5-fluoro-3,4-dihydro-1H-isoquinoline-2-carboxylic acid benzyl ester]	69.1
COc1ccc(CC(=O)O)cc1-c1ccc(F)c2c1CN(C(=O)C1C(C)(C)C1(C)C)CC2 [Example 50, {3-[5-Fluoro-2-(2,2,3,3-tetramethyl-cyclopropanecarbonyl)-1,2,3,4-tetrahydro-isoquinolin-8-yl]-4-methoxy-phenyl}-acetic acid]	267
COc1cc(CC(=O)O)ccc1-c1ccc(F)c2c1CN(C(=O)[C@@H]1C[C@H]1c1ccccc1)CC2 [Example 184, {4-[5-Fluoro-2-((1R,2R)-2-phenyl-cyclopropanecarbonyl)-1,2,3,4-tetrahydro-isoquinolin-8-yl]-3-methoxy-phenyl}-acetic acid]	0.9
CCCNC(=O)N1CCc2c(F)ccc(-c3cc(CC(=O)O)ccc3OCC)c2C1 [Example 439, [4-Ethoxy-3-(5-fluoro-2-propylcarbamoyl-1,2,3,4-tetrahydro-isoquinolin-8-yl)-phenyl]-acetic acid]	126
CCOc1cc(CC(=O)O)ccc1-c1ccc(F)c2c1CN(C(=O)/C=C/c1cnn(C)c1)CC2 [Example 339, (3-Ethoxy-4-{5-fluoro-2-[(E)-3-(1-methyl-1H-pyrazol-4-yl)-acryloyl]-1,2,3,4-tetrahydro-isoquinolin-8-yl}-phenyl)-acetic acid]	12.7
C[C@@H](CC(=O)N1CCc2c(F)ccc(-c3ccc(CC(=O)O)cc3OCC(F)(F)F)c2C1)c1ccccc1 [Example 287, [4-[5-Fluoro-2-((S)-3-phenyl-butyryl)-1,2,3,4-tetrahydro-isoquinolin-8-yl]-3-(2,2,2-trifluoro-ethoxy)-phenyl]-acetic acid]	8.1
CCOc1ccc(CC(=O)O)cc1-c1ccc(F)c2c1CN(C(=O)OCC(C)CC)CC2 (racemic) [Example 380]	4.2

Second part, the molecule after the results:

IC50 [nM]	SMILES
7.25	COc1cc(CC(=O)O)ccc1-c1ccc(F)c2c1CN(C(=O)CCn1ncc3cc(F)ccc31)CC2 [Example 190, (4-{5-Fluoro-2-[3-(5-fluoro-indazol-1-yl)-propionyl]-1,2,3,4-tetrahydro-isoquinolin-8-yl}-3-methoxy-phenyl)-acetic acid]
6	CCOc1ccc(CC(=O)O)cc1-c1ccc(F)c2c1CN(C(=O)O[C@H](C)c1ccccc1)CC2 [Example 364, 8-(5-Carboxymethyl-2-ethoxy-phenyl)-5-fluoro-3,4-dihydro-1H-isoquinoline-2-carboxylic acid (R)-1-phenyl-ethyl ester]
7.12	COc1ccc(CC(=O)O)cc1-c1ccc(F)c2c1CN(C(=O)OCc1csc(C)n1)CC2 [Example 150, 8-(5-Carboxymethyl-2-methoxy-phenyl)-5-fluoro-3,4-dihydro-1H-isoquinoline-2-carboxylic acid 2-methyl-thiazol-4-ylmethyl ester]
430	COc1ccc(OC(C)C(=O)O)cc1-c1ccc(F)c2c1CN(C(=O)OCc1ccccc1)CC2 (racemic) [Example 414]
13.1	CCOc1ccc(CC(=O)O)cc1-c1ccc(F)c2c1CN(C(=O)CC(CC)c1ccccn1)CC2 (racemic) [Example 308]
414	COc1ccc(CC(=O)O)cc1-c1ccc(F)c2c1CCN(C(=O)[C@@H]1C[C@H]1c1ccccc1)C2 [Example 99, {3-[8-Fluoro-2-((1R,2R)-2-phenyl-cyclopropanecarbonyl)-1,2,3,4-tetrahydro-isoquinolin-5-yl]-4-methoxy-phenyl}-acetic acid]
774	CCOCC(=O)N1CCc2c(F)ccc(-c3cc(CC(=O)O)ccc3OC)c2C1 [Example 46, {3-[2-(2-Ethoxy-acetyl)-5-fluoro-1,2,3,4-tetrahydro-isoquinolin-8-yl]-4-methoxy-phenyl}-acetic acid]
3.4	O=C(O)Cc1ccc(OCC(F)(F)F)c(-c2ccc(F)c3c2CN(C(=O)CC2COCc4ccccc42)CC3)c1 (racemic) [Example 305]
21.3	COc1ccc(CC(=O)O)cc1-c1ccc(F)c2c1CCN(C(=O)CCN1CCCc3ccccc31)C2 [Example 104, {3-[2-(3-3,4-Dihydro-2H-quinolin-1-yl-propionyl)-8-fluoro-1,2,3,4-tetrahydro-isoquinolin-5-yl]-4-methoxy-phenyl}-acetic acid]
10.5	COc1ccc(CC(=O)O)cc1-c1ccc(F)c2c1CN(C(=O)Cc1n[nH]c3ccccc13)CC2 [Example 124, {3-[5-Fluoro-2-(2-1H-indazol-3-yl-acetyl)-1,2,3,4-tetrahydro-isoquinolin-8-yl]-4-methoxy-phenyl}-acetic acid]
1.16	COc1ccc(CC(=O)O)cc1-c1ccc(Cl)c2c1CN(C(=O)[C@@H]1C[C@H]1c1ccccc1F)CC2 [Example 70, (3-{5-Chloro-2-[(1R,2R)-2-(2-fluoro-phenyl)-cyclopropanecarbonyl]-1,2,3,4-tetrahydro-isoquinolin-8-yl}-4-methoxy-phenyl)-acetic acid]
49.8	COc1ccc(CC(=O)O)cc1-c1ccc(F)c2c1CN(C(=O)CC(C)(O)c1ccccc1)CC2 (racemic) [Example 256]
538	COc1ccc(CC(=O)O)cc1-c1ccc(F)c2c1CN(C(=O)CC1(O)CCCCC1)CC2 [Example 128, (3-{5-Fluoro-2-[2-(1-hydroxy-cyclohexyl)-acetyl]-1,2,3,4-tetrahydro-isoquinolin-8-yl}-4-methoxy-phenyl)-acetic acid]
21.5	COc1ccc(CC(=O)O)cc1-c1ccc(F)c2c1CN(C(=O)NCc1ccccc1Cl)CC2 [Example 134, {3-[2-(2-Chloro-benzylcarbamoyl)-5-fluoro-1,2,3,4-tetrahydro-isoquinolin-8-yl]-4-methoxy-phenyl}-acetic acid]
253	COc1ccc(CC(=O)O)cc1-c1ccc(F)c2c1CN(C(=O)CC(c1ccccc1)C(C)C)CC2 (racemic) [Example 264]
2.7	COc1ccc(CC(=O)O)cc1-c1ccc(F)c2c1CN(C(=O)CC1COc3ccccc3C1)CC2 (racemic) [Example 242]
1.12	COc1ccc(CC(=O)O)cc1-c1ccc(F)c2c1CN(C(=O)[C@@H]1C[C@H]1c1ccc(Cl)cc1)CC2 [Example 64, (3-{2-[(1R,2R)-2-(4-Chloro-phenyl)-cyclopropanecarbonyl]-5-fluoro-1,2,3,4-tetrahydro-isoquinolin-8-yl}-4-methoxy-phenyl)-acetic acid]
150	CCOc1cc(CC(=O)O)ccc1-c1ccc(F)c2c1CN(C(=O)Cc1ccccn1)CC2 [Example 342, {3-Ethoxy-4-[5-fluoro-2-(2-pyridin-2-yl-acetyl)-1,2,3,4-tetrahydro-isoquinolin-8-yl]-phenyl}-acetic acid]
59.1	COc1ccc(CC(=O)O)cc1-c1ccc(F)c2c1CN(C(=O)COc1ccc(F)cc1)CC2 [Example 44, (3-{5-Fluoro-2-[2-(4-fluoro-phenoxy)-acetyl]-1,2,3,4-tetrahydro-isoquinolin-8-yl}-4-methoxy-phenyl)-acetic acid]
3.8	CCOc1ccc(CC(=O)O)cc1-c1ccc(F)c2c1CN(C(=O)/C=C/c1ccccn1)CC2 [Example 336, {4-Ethoxy-3-[5-fluoro-2-((E)-3-pyridin-2-yl-acryloyl)-1,2,3,4-tetrahydro-isoquinolin-8-yl]-phenyl}-acetic acid]
